The subject of data set [1] is HEK293 cells. Put plainly: In vitro luciferase expression in HEK293 (Example 1). It is filed as cell-based, human. The procedure:
(§1) In vitro luciferase and GFP expression: HEK 293 and HepG2 cells were maintained in Dulbecco's modified Eagle's medium (DMEM) and 4T1 cells were cultured in RPMI 1640 growth medium at 37° C. with 5% CO2. All growth media used were completed with 10% fetal bovine serum, 100 μg/mL of streptomycin and 100 U/ml of penicillin.
(§2) One day before transfection, cells were seeded at a density that depended on the cell line and type of experiments. For the luciferase transfection assay, 0.5 mL of medium containing 5-8×10^4 cells were seeded into each well of a 24-well plate, while 1.0 mL of medium containing 1.8-2.0×10^5 cells were pipetted into each well of a 12-well plate for GFP expression. Peptide/DNA complexes were formed at various N/P ratios in 10 mM PBS (pH 7.0) by dripping equivolume solutions of peptide into DNA. The mixture was then vortexed for ˜10 seconds and left to stand for at least 30 minutes before usage. Meanwhile, all media were replaced with fresh ones. […]
(§3) Analysis for luciferase expression was carried out after 3 days. […] The relative light unit (RLU) was measured with a luminometer (Lumat LB 9507, EG&G Berthold) and normalized against the protein concentration as measured with a bicinchoninic acid protein assay kit (Pierce). Luciferase activity was finally expressed as RLU/mg protein ±standard deviation of at least 4 samples. […]

For data set [2], the system named is HEK293 cells. Description: GFP transfection assay in HEK293. It is filed as cell-based, human. Here is the method:
as §1, §2
For the GFP transfection assay, cells were harvested after 2 days. […] The percentage of cells expressing GFP was then determined using a flow cytometer (FACSCalibur, Becton Dickinson) from 10,000 events and reported as a mean±standard deviation of at least 4 samples. […]

The next data set deals with HepG2 cells. Description: In vitro luciferase expression in HepG2 (Example 1). It is filed as cell-based, human. The procedure:
as §1, §2, §3

The test system of data set [3] is HEK293, HepG2 and 4T1 cells. Description: In vitro luciferase expression, all three cell lines (Example 1). It is filed as cell-based, human, mouse. The settings on record: all cell lines tested. Here is the method: as §1, §2, §3
For another data set, the system named is plasmid DNA. Description: Agarose gel electrophoresis DNA binding assay (Example 1). The settings on record: 10 mM PBS pH 7.0; for N/P ratio at which bulk electrophoretic migration of DNA is retarded: N/P = arginine residues to DNA phosphorus. The procedure: DNA binding and protection assays: Agarose gel electrophoresis was conducted to study the DNA binding ability of the peptides. The peptide/DNA complexes containing 2.5 μg of DNA per 50 μL of solution were formed at various N/P ratios. The complex solution (10 μL), together with 2 μL of loading dye (Promega), were then loaded into the wells of a 1.0 wt % agarose gel preloaded with 2 μL of ethidium bromide (per 50 mL of gel solution), and electrophoresed at 80 V for 50 minutes prior to imaging (ChemiGenius Q, Syngene).
To evaluate the ability of the peptides to fully condense DNA so as to prevent its premature degradation en route to the nuclei of cells, plasmid DNA encoding the 6.4 kb firefly luciferase (pCMV-luciferase VR1255_C) driven by the cytomegalovirus (CMV) promoter (Carl Wheeler, Vical, U.S.A.) was bound to each peptide in 10 mM phosphate-buffered saline (PBS, pH 7.0) at various N/P ratios (defined here as the molar ratio of arginine residues in the peptide to the phosphorus content in DNA). Gel electrophoresis assays were then performed.

Data set [4] is described as follows: MTT cytotoxicity assay in 4T1 (Example 1). It is filed as cell-based. The settings on record: mouse, 4T1 cells; read-out: cells viable at peak luciferase expression. The procedure: Cytotoxicity assay: Cells were seeded onto 96-well plates at a density of 6-10×10^3 cells/well. After 24 hours, all media were replaced with fresh ones and 10 μL of sample was introduced into each well. The sample consisted of either pure peptide or […] dissolved in the medium at the desired concentration. After 4 hours, all media were aspirated and replaced with fresh ones. Cytotoxicity analysis was carried out 3 days later by first replacing all wells with fresh media and adding 20 μL of MTT (5 mg/mL in PBS). After incubating for another 3 hours, all wells were carefully aspirated and replaced with 0.15 mL of DMSO to dissolve the internalized purple formazan crystals. The solution was homogenised and the relative colour intensity was measured with a microplate reader (PowerWave X, Bio-Tek Inc.). A test wavelength of 550 nm and a reference wavelength of 690 nm were used. Cell viability was represented by the average of (absorbance550 nm−absorbance690 nm) of the sample expressed as a percentage of the intensity of the controls ±standard deviation. Each data point was repeated at least 8 times.
For complexes of F, I and W, a peptide concentration of 0.02 and 0.10 mg/mL will approximately correspond to N/P ratio 5 and 25, respectively. For H, a peptide concentration of 0.03 and 0.09 mg/mL will approximately correspond to N/P ratio 10 and 30. […]
In general terms: Tetrazolium dyes change colour on reduction, which living cells bring about.

Another data set concerns 4T1 cells. Put plainly: In vitro luciferase expression in 4T1 (Example 1). The class given is cell-based, mouse. Here is the method:
as §1, §2, §3

The next data set relates to DNA. Put plainly: Kinetics of DNA capture (PicoGreen). It is filed as binding. The procedure: Upon condensation of the DNA, however, PicoGreen becomes excluded resulting in a drop in florescent intensity. Making use of this behavior, the kinetics of the DNA capturing process was traced and quantified. At time=0, the peptide solution was dripped into the DNA solution and vortexed for ˜10 seconds. At appropriate time intervals, 10 μL of the complex solution was taken out and mixed with 990 μL of PicoGreen working solution (diluted 400 times from its stock solution with TE buffer, pH 7.3). The fluorescence emission spectrum was then recorded with a Fluorolog LFI 3751 fluorescence spectrometer (Jobin Yvon Horiba). The excitation wavelength used was 480 nm and the silts were set to 4 nm. The fluorescence area intensity at any time point expressed as a percentage of the fluorescence intensity obtained with the initial concentration of DNA (before mixing with peptide) was used to reflect the concentration of uncaptured/loosely captured DNA. A profile was plotted to trace the temporal evolution of the DNA capturing process. Blanks and background were corrected for in all calculations.
To further understand the efficiency and kinetics of DNA capture by the peptides, PicoGreen was used as a sensitive fluorescence probe. […] This behavior can be employed to trace the temporal evolution of free/loosely bound DNA in solution.

Data set [5] in a line: Zeta potential of pure peptide. The class given is physicochemical.
Data set [6] concerns subcutaneous 4T1 breast tumors. Description: In vivo luciferase expression in 4T1 tumor-bearing mice. Here is the method:
In vivo luciferase expression: Female Balb/c mice (Centre for Animals Resources, National University of Singapore) weighing 18-20 g were subcutaneously injected with 0.1 mL of serum-free RPMI 1640 containing 4×10^5 4T1 cells. A tumor was then allowed to develop in each mouse for 10-12 days. PEI and different formulations of I/DNA complexes were prepared as above, and 30 μl of sample containing 4 μg of DNA was injected directly into each tumor. The tumor tissues were harvested two days later. To analyse for luciferase activity, each tumor was first thoroughly homogenised in lysis buffer, followed by two further freeze-thaw cycles. The mixture was then centrifuged and assayed for its luciferase activity as described above. Expression level was given as RLU/mg protein ±standard deviation of at least 4 mice.
Finally, the in vivo gene transfection capacity of the peptides was evaluated by performing luciferase expression experiments with peptide I on mice bearing subcutaneous 4T1 breast tumors. […] This may be because the amount of DNA being delivered by the supernatant and sediment formulations was smaller. The large DNA complexes might also not be uniformly distributed in the tumor, limiting the cellular uptake of the large complexes. […]

Where no end group is shown, it is not given here.

With “FFFFFHHHHRRRRRRRR-NH2 [F, NH2—F5H4R8—CONH2]”, in the data set with HEK293 cells [1], the “luciferase expression level compared among the peptides” value is listed as “highest luciferase expression level” and the “luciferase expression level, times that of PEI” value is listed as 0.8 times. Also, the “proportion of cells transfected with the GFP gene, comparison” value in the data set on HEK293 cells [2] was “transfected more HEK293 cells with the GFP gene than H”. Also, in the data set with HepG2 cells, the “luciferase expression level compared among the peptides” value is given as “highest luciferase expression level” and the “luciferase expression level, times that of PEI” value was 0.2 times.
Consider “NH2—W5H4R8—CONH2 (H-WWWWWHHHHRRRRRRRR-NH2)”, for which the “gene expression level compared among the peptides” value in [3] is recorded as “lowest gene expression level”.
Take “IIIIIHHHHRRRRRRRR-NH2 [I, NH2—I5H4R8—CONH2]”: in the data set on plasmid DNA, the “N/P ratio from which ethidium bromide is completely excluded from the condensed DNA” value was no less than 5 and the “N/P ratio at which bulk electrophoretic migration of DNA is retarded” value stood at 2. Besides, in data set [4], the viability at 4 h is roughly 90%. Also, the “luciferase expression level compared among the peptides” value in the data set with 4T1 cells (4T1) is on record as “optimal”. Further, the “peak luciferase expression level, times higher than PEI” value in the data set on 4T1 cells (4T1 cells, PEI branched Mw 25,000) was 6.4 times. Further, the “quenching of PicoGreen fluorescence compared with H” value with DNA was “to a greater extent”. Besides, in data set [5], the “zeta potential of pure peptide” value is given as 15.8±0.2 mV. Further, the “gene expression in mouse breast cancer model compared with PEI” value in [6] was “much more efficiently than PEI”.
For the substance NH2—H4R8—CONH2, the “N/P ratio at which bulk electrophoretic migration of DNA is retarded” value in the data set with plasmid DNA is 5. Also, the “zeta potential of pure peptide” value in data set [5] came to 8.0±0.2 mV.

For the origin of these results see patent publication US20100286069A1, “CATIONIC PEPTIDE FOR DELIVERING AN AGENT INTO A CELL” (priority 2007, published 2010).
